Data taken from the supplement of paper PMC11061612.

Experiments:
[1] = test system: COLO-668 (Small Cell Lung Carcinoma); assay: Bliss excess, mean over the matrix (fraction); higher = more synergy
Outline: (§1)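 After 24 hours at 37°C and 5% CO2 in 1536-well plates, cells in DMEM/F12 or RPMI plus 10% FBS received two-drug dose matrices for 72 hours. Viability came from CellTiter-Glo 2.0 luminescence and was scaled as inhibition, anchored at 0 by vehicle wells and at 1 by blank wells. Combination Emax is taken as the second-highest inhibition in the matrix, and Bliss excess as the observed combination effect less EA + EB − EA·EB, with EA and EB the single-agent effects.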

[2] = test system: SW872 (Other Solid Carcinomas); assay: as above
Outline: as §1

[3] = test system: Ca-Ski (Cervical Carcinoma); assay: combination Emax (second highest fraction inhibited in the dose matrix, 72 h); higher = more inhibition; extreme values may be limits of the assay
Outline: as §1

[4] = test system: DU-145 (Prostate Carcinoma); assay: as above
Outline: as §1

[5] = test system: EFO-21 (Ovarian Carcinoma); assay: as above
Outline: as §1

[6] = test system: EJM (Plasma Cell Myeloma); assay: as above
Outline: as §1

[7] = test system: G-401 (Other Solid Carcinomas); assay: as above
Outline: as §1

[8] = test system: HCC1500 (Breast Carcinoma); assay: as above
Outline: as §1

[9] = test system: HCC1937 (Breast Carcinoma); assay: as above
Outline: as §1

[10] = test system: NCI-H1092 (Small Cell Lung Carcinoma); assay: as above
Outline: as §1

[11] = test system: NCI-H1355 (Lung Adenocarcinoma); assay: as above
Outline: as §1

[12] = test system: NCI-H1838 (Lung Adenocarcinoma); assay: as above
Outline: as §1

[13] = test system: NCI-H2122 (Lung Adenocarcinoma); assay: as above
Outline: as §1

[14] = test system: NCI-H522 (Lung Adenocarcinoma); assay: as above
Outline: as §1

[15] = test system: OE33 (Esophageal Adenocarcinoma); assay: as above
Outline: as §1

[16] = test system: SK-LU-1 (Lung Adenocarcinoma); assay: as above
Outline: as §1

SK-N-AS (Neuroblastoma) = assay: as above
Outline: as §1

[17] = test system: SNU-387 (Hepatocellular Carcinoma); assay: as above
Outline: as §1

[18] = test system: SW982 (Other Solid Carcinomas); assay: as above
Outline: as §1

[19] = test system: COLO-668 (Small Cell Lung Carcinoma); assay: as above
Outline: as §1
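For Bliss excess, mean over the matrix in this document: after 72 h of two-drug dosing.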

Structure (SMILES) | Bliss excess [1] | Bliss excess [2] | combination Emax [3] | combination Emax [4] | combination Emax [5] | combination Emax [6] | combination Emax [7] | combination Emax [8] | combination Emax [9] | combination Emax [10] | combination Emax [11] | combination Emax [12] | combination Emax [13] | combination Emax [14] | combination Emax [15] | combination Emax [16] | combination Emax (SK-N-AS (Neuroblastoma)) | combination Emax [17] | combination Emax [18] | combination Emax [19]
CN(CCO)CC[C@H](CSc1ccccc1)Nc1ccc(S(=O)(=O)NC(=O)c2ccc(N3CCC([C@@H](O)c4ccccc4-c4ccc(Cl)cc4)CC3)cc2)cc1S(=O)(=O)C(F)(F)F [AZD4320] + C=CCn1c(=O)c2cnc(Nc3ccc(N4CCN(C)CC4)cc3)nc2n1-c1cccc(C(C)(C)O)n1 [AZD1775] (first compound max 1 µM, partner max 1 µM) | 0.0801 | 0.0035 | 0.96 | 0.213 | 0.53 | 0.977 | 0.901 | 0.995 | 0.791 | 0.809 | 0.594 | 0.541 | 0.953 | 0.237 | 0.492 | 0.542 | 0.976 | 0.681 | 0.953 | 
CS(=O)(=O)CCNCc1ccc(-c2ccc3ncnc(Nc4ccc(OCc5cccc(F)c5)c(Cl)c4)c3c2)o1 [Lapatinib] + NC1(c2ccc(-c3nc4ccn5c(=O)[nH]nc5c4cc3-c3ccccc3)cc2)CCC1 [MK-2206] (first compound max 10 µM, 7x7, partner max 10 µM) | -0.0393 | -0.0066 | 0.758 | 0.297 | 0.321 |  |  | 0.901 | 0.841 | 0.791 | 0.286 | 0.348 |  | 0.322 | 0.849 | 0.335 | 0.16 | 0.873 | 0.894 | 0.508
Cc1c2c(nn1C)CSCc1cc(n(C)n1)CSc1cc(c3ccccc3c1)OCCCc1c(C(=O)O)n(C)c3c-2c(Cl)ccc13 [AZD5991] + CS(=O)(=O)CCNCc1ccc(-c2ccc3ncnc(Nc4ccc(OCc5cccc(F)c5)c(Cl)c4)c3c2)o1 [Lapatinib] (first compound max 1 µM, 7x7, partner max 10 µM) | 0.0395 | 0.0129 | 0.735 | 0.198 | 0.277 |  |  |  |  |  | 0.326 |  |  | 0.626 | 0.529 | 0.229 | 0.395 | 0.459 | 0.621 | 0.285
C[C@@H](Nc1cc(F)cc(F)c1)c1cc(C(=O)N(C)C)cc2c(=O)cc(N3CCOCC3)oc12 [AZD8186] + C1CN(CCC1(C(=O)N[C@@H](CCO)C2=CC=C(C=C2)Cl)N)C3=NC=NC4=C3C=CN4 [AZD5363] (first compound max 10 µM, 7x7, partner max 10 µM) | -0.002 | 0.0068 | 0.463 | 0.189 | 0.235 |  |  |  |  |  | 0.395 |  |  | 0.0756 | 0.332 | 0.303 | 0.135 | 0.472 | 0.512 | 0.327
C[C@@H]1COCCN1c1cc(C2([S@](C)(=N)=O)CC2)nc(-c2ccnc3[nH]ccc23)n1 [AZD6738] + Nc1ccn([C@@H]2O[C@H](CO)[C@@H](O)C2(F)F)c(=O)n1 [Gemcitabine] (first compound max 10 µM, 7x7, partner max 0.3 µM) | 0.0525 | 0.0769 | 0.883 | 0.583 | 0.625 |  |  |  |  |  | 0.722 |  |  | 0.912 | 0.752 | 0.415 | 0.801 | 0.718 | 0.949 | 0.854
Cc1c2c(nn1C)CSCc1cc(n(C)n1)CSc1cc(c3ccccc3c1)OCCCc1c(C(=O)O)n(C)c3c-2c(Cl)ccc13 [AZD5991] + Nc1ccn([C@@H]2O[C@H](CO)[C@@H](O)C2(F)F)c(=O)n1 [Gemcitabine] (first compound max 1 µM, 7x7, partner max 0.3 µM) | -0.0674 | -0.0066 | 0.757 | 0.441 | 0.379 |  |  |  |  |  | 0.455 |  |  | 0.784 | 0.543 | 0.19 | 0.717 | 0.565 | 0.844 | 0.829
Cc1nc(-c2cn3c(n2)-c2ccc(-c4cnn(C(C)(C)C(N)=O)c4)cc2OCC3)n(C(C)C)n1 [Taselisib] + O=C(Nc1ccc2[nH]nc(-c3ccncc3)c2c1)[C@@H]1CCN(CC(=O)N2CCN(c3ccc(-c4ncccn4)cc3)CC2)C1 [SCH772984] (first compound max 10 µM, 7x7, partner max 5 µM) | 0.0737 | 0.0712 | 0.833 | 0.342 | 0.409 |  |  |  |  |  | 0.656 |  |  | 0.339 | 0.831 | 0.516 | 0.494 | 0.996 | 0.908 | 0.855
